Laboratory results: publication PMC9022420 (Scientific Reports, 2022)
pIC50: −log10 of the molar value.

Columns and labels:
[1] = tested on: ssRNA (EGFP-encoding mRNA, ~ 1 k nt); experiment: ssRNA photocleavage, agarose gel electrophoresis; type: biochemical; conditions: 10 µM flavin, 15 min white LED, PBS 0.1% DMSO
Experimental: (§1) A 20 µL aliquot was taken after 15 min of white LED irradiation (1 × 10^5 lx). Prior to loading, 2 µL of 6X Orange-G loading dye in glycerol were added to the aliquot and mixed vigorously. The gel was electrophoresed at 80 V for 35 min with 1% agarose gels in 1X Tris–acetate-EDTA (TAE) buffer. Gels were then imaged in a Syngene G:BOX Gel Documentation System and band % quantification was performed using ImageJ Gel Analyzer.

[2] = tested on: murine hepatitis virus A59 strain (MHV-A59); experiment: Photodynamic inactivation of MHV-A59 (TCID50 assay in 17Cl-1 cells); type: cell-based
Experimental: The efficacy of the flavins were enumerated utilizing modified methods from ISO 18,184 and Leibowitz et al.[56] […] 100 µM working stock solutions were then created by diluting each DMSO solution into PBS. To control for the effect of DMSO on MHV-A59, DMSO was diluted into PBS at the same concentration. A white light apparatus was set up to cover a 4 × 5 (row x column) area of a 96-well plate with the same level of light intensity (1 × 10^5 lx). The stock solutions were then diluted in replicates of four to a total of 180 µl in PBS at 1, 5, and 10 µM concentrations for each sample. Virus stocks of MHV-A59 were thawed on ice prior to use. 20 µl of MHV-A59 stock (1.4 × 10^9 PFU/ml) was then mixed into each well, and the 4 × 5 well matrix was treated with the light or incubated in the dark at room temperature for a specified time (5, 10, or 15 min).
After treatment, the samples were mixed into 320 µl of Gibco Difco™ Beef Extract (1.5% w/v beef extract in ddH2O; Life Technologies) and rolled for 15 min to chelate any free ions in the solution. The samples then were serially diluted (10^0–10^–7) in infectivity media (Dulbecco’s modified Eagle’s medium low glucose 1 g/L (DMEM, Life Technologies) supplemented with 2.5% fetal bovine serum (Merck), 3% tryptose phosphate broth (Merck), 1 × non-essential amino acids (Gibco), 1 × antibiotic–antimycotic (Thermo Fisher Scientific) and 1 × L-Glutamine (Gibco]) and added in triplicate to 17Cl-1 cell plates. For each sample or control there were 4 replicate treatments (in light or dark); each treatment replicate was plated in triplicate. Infected 17Cl-1 plates were incubated at 37 °C in a 5% CO2 atmosphere for 24 h. Plates were scored for cytopathic effect (CPE) by microscopy and viral titres were determined by the Reed and Muench 50% tissue culture infectious dose (TCID50) end point method. Outliers were removed from the four replicates using an outlier test. The full protocol was repeated in triplicate on different days to account for any variability in the assay.

[3] = tested on: WI-38 cells; experiment: Light-induced toxicity towards WI-38 cells (MTS); type: cell-based, human; conditions: 10 μM flavin, 15 min irradiation 1 × 10^5 lx
Experimental: An adapted method reported by Maisch et al. was used to conduct phototoxicity studies on human lung fibroblasts, WI-38[28]. Cells were seeded into 96-well plates containing 10,000 cells/well in 100 µL complete growth medium and cultured for 24 h at 37 °C and 5% CO2. […] The resulting mixtures were then incubated in the dark for 5 min and then either illuminated with 1 × 10^5 lx for 5, 10 or 15 min, or incubated further in the dark for 15 min (dark control). After irradiation, the flavin solutions were removed and 100 μL of DMEM with 10% FBS and without phenol red was added to each well and incubated over night at 37 °C and 5% CO2. Subsequently, 20 µL of MTS reagent was added into each well and incubated at 37 °C and 5% CO2 for 1–4 h and the absorbance of each well was measured at 490 nm using a plate reader. Control measurements included negative control untreated cells with light and in the dark containing 0.1% DMSO and cells treated with flavins for 15 min in the dark. All experiments were conducted in biological triplicates. The percentage cell viability was calculated according to Eq. (1).

[4] = tested on: 17Cl-1 cells; experiment: 24 h MTS cytotoxicity assay, 17Cl-1; type: cell-based, murine; conditions: Mus musculus, 24 h incubation, dark
Experimental: (§2) The MTS tetrazolium compound is reduced by cells into a coloured formazan product which is soluble in cell culture media. It can be detected colorimetrically between 450 and 540 nm with the measured absorbance directly proportional to the amount of metabolically active cells in culture. Cells were seeded into clear 96-well plates containing 10,000 cells/well in 100 µL complete growth medium and cultured for 24 h at 37 °C and 5% CO2. […] After further 24 h incubation at 37 °C and 5% CO2, 20 µL of CelTiter 96® AQueous One Solution (Promega) was added into each well and incubated at 37 °C, 5% CO2 for 1–4 h, according to the manufacturer’s instruction. The absorbance of each well was measured at 490 nm using a plate reader (Spark, Tecan). Control measurements included negative control of cells with DMEM, cells with DMEM containing 0.1% DMSO, cell-free culture media (blank) and cell-free sample dilutions in culture media to evaluate potential sample interferences with MTS assay. All experiments were conducted in biological triplicates. The percentage cell viability was calculated according to Eq. (1):1 Cell viability(%)=100×Absorbanceoftreatedcells-Absorbanceofblank/Absorbanceofcontrol-Absorbanceofblank

[5] = tested on: WI-38 cells; experiment: 24 h MTS cytotoxicity assay, WI-38; type: cell-based; conditions: Homo sapiens, 24 h incubation, dark
Experimental: as §2

[6] = tested on: E. coli BL21(DE3); experiment: Photodynamic inactivation of E. coli (CFU counting); type: cell-based
Experimental: After an overnight aerobic culture in LB broth at 37 °C with shaking at 225 rpm, the resulting E. coli were centrifuged at 2,500 rpm for 10 min. The pellet was resuspended in PBS (Sigma, 1x, pH 7.4) to an OD600 value of 0.6 (~ 1 × 10^8 bacteria per ml). […] Aliquots of negative controls (0.5% DMSO in PBS; PBS only) and 100 μM flavin-bacteria samples were covered in foil to remain in dark, while all samples were plated onto a 96-well plate and exposed to white LED irradiation (1 × 10^5 lx) for 15 min. After 15 min of irradiation or darkness, each sample was serially diluted to its respective, appropriate dilution and plated onto an LB agar plate with 50 μg/mL kanamycin. Plates were incubated overnight at 37 °C in the dark. Survival of bacteria was determined by counting colony forming units (CFUs) the next day.
For time point data, aliquots of 100 μM flavin-bacteria solutions were taken at 5-min increments of irradiation (0, 5, 10, and 15 min) and evaluated similarly as above. Time point experiment with one-minute increments, between 0 and 5 min, were conducted for 100 μM F4-bacteria samples.

[7] = Flavin photostability in PBS under white LED irradiation; type: physicochemical; conditions: 30 min, 100 µM, pH 7.4
Excerpt: After successful synthesis and initial characterisation, we monitored the photostability of the compounds in PBS (1x, pH 7.4) which was used for PDI assays as distilled or ultrapure water destabilises bacterial cells and coronaviruses through osmotic pressures[37],[38], thereby augmenting inactivation results. […] This yields lumichrome as the major degradation product which can only act as a PS under UV-irradiation[40]. […] However, it appears that guanidino substitution in our case improves the photostability.
Figure S4: (A) Flavin photostability (100 µM) in PBS (0.1% DMSO) irradiated with 1x105 lx (35 mW/cm2) where A
= Abs at 450 nm and A0 = Abs at 450 nm at 0 min.
photostability. Experiments were performed using a quartz cuvette and measured using an Agilent Cary 300
(1 picture or pasted object on this page, not shown here)

[8] = tested on: pDNA (pUC18); experiment: pDNA photocleavage, agarose gel electrophoresis; type: biochemical; conditions: 10 µM flavin, 15 min white LED, PBS 0.1% DMSO
Experimental: as §1

[9] = 5 µM flavin, 10 min irradiation

Cc1cc2nc3c(=O)[nH]c(=O)nc-3n(C[C@H](O)[C@H](O)[C@H](O)CO)c2cc1C [Riboflavin, reference compound]
% cleaved ssRNA [1]: 28% | MHV-A59 log10 reduction in viral titre ([2]; 1 µM flavin, 10 min irradiation (21.0 J/cm^2)): 1.2 log10 | MHV-A59 log10 reduction in viral titre [2, 9]: 3.2 log10 | MHV-A59 viral load reduction [2, 9]: > 99.9% | MHV-A59 log10 reduction in viral titre ([2]; 10 µM flavin, 5 min irradiation (10.5 J/cm^2)): 2.7 log10 | MHV-A59 log10 reduction in viral titre ([2]; 10 µM flavin, 10 min irradiation): 3.4 log10 | MHV-A59 log10 reduction in viral titre ([2]; 10 µM flavin, 15 min irradiation (31.5 J/cm^2)): 3.7 log10 | reduction in cell viability (light-induced toxicity) [3]: no decrease in cell viability | pIC50 [4]: < 4.00 | pIC50 [5]: < 4.00 | E. coli log10 reduction of CFUs ([6]; 1 µM flavin, 15 min irradiation (31.5 J/cm^2)): 0.2 log10 | E. coli log10 reduction of CFUs ([6]; 1 µM flavin, 15 min irradiation (31.5 J/cm^2), listed as riboflavin): no inactivation | E. coli log10 reduction of CFUs ([6]; 10 µM flavin, 15 min irradiation): 0.2 log10 | E. coli log10 reduction of CFUs ([6]; 100 µM flavin, 5 min irradiation (10.5 J/cm^2)): 0.0 log10 | E. coli log10 reduction of CFUs ([6]; 100 µM flavin, 10 min irradiation): 0.0 log10 | E. coli log10 reduction of CFUs ([6]; 100 µM flavin, 15 min irradiation): 0.0 log10 | E. coli log10 reduction of CFUs ([6]; 100 µM flavin, 15 min irradiation, listed as riboflavin): no activity | photodecomposition / degradation [7]: 80% | % NC (nicked coiled pDNA after photocleavage) [8]: 11%
